Values of other authors in PMC2694617 (Journal of medicinal chemistry, 2009).
Read-outs that look alike come from different tables or passages of the source.

Assays:
human NTS1 [1] = target: T1, human NTS1 (Homo sapiens, UniProt P30989)
[2] = ref [6],[11],[18],[19]
[3] = system: rat model of inflammatory pain; conditions: in vivo
human NTS1 [4] = target: T1, human NTS1; remark: listed apart in the source

T1 sequence (P30989 whole entry): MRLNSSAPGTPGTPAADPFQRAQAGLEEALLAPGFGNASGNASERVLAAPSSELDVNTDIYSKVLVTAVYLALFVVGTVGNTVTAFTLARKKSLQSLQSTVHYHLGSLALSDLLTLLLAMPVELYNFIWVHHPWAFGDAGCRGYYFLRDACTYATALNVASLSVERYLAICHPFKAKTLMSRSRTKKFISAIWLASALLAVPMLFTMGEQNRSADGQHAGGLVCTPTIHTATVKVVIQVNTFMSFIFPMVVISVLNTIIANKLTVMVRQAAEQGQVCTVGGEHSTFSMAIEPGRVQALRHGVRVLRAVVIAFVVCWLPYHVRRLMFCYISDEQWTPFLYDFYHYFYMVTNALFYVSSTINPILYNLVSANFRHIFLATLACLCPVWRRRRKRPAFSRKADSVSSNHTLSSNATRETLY

In the case of “(N-methyl-Arg)-Lys-Pro-(L-neo-Trp)-(tert-Leu)-Leu (RKPWLL) [NT69L]”, the Kd (human NTS1 [1]; ref [11]) is listed as 1.55 nM.

For “(N-methyl-Arg)-Lys-Pro-(L-neo-Trp)-(tert-Leu)-Leu [NT69L]”, the analgesic activity (ref [6],[11],[18],[19]) is given as “potent analgesic” and the BBB penetration [2] is given as “penetrates the BBB”.

In the case of “NT: endogenous neuropeptide; full-length, unmodified NT”, the analgesic activity (mediated spinally and/or supraspinally by NT receptors, ref [5],[6]) is listed as “potent analgesic activity”.

In the case of contulakin-G, the potency [3] is listed as “picomolar potency”.

In the case of “cyclo(KKPYILKKPYIL) [JMV2012] [listing 1 of 2 here]”, the Kd (human NTS1 [1]; ref [12]) is given as 150 nM.

For “cyclo(KKPYILKKPYIL) [JMV2012] [listing 2 of 2 here]”, the analgesic activity (previously described, ref [12]) is listed as “analgesic”.

In the case of neurotensin (from UniProt P30990), the Ki (human NTS1 [4]) is listed as 0.5 nM.
